Data: patent US20230146870A1, “METHOD TO QUANTIFY AFFINITY AND SELECTIVITY OF SMALL MOLECULES FOR PROTEINS IN LIVING CELLS” (Ohio State Innovation Foundation, priority 2021, published 2023)
Values joined by “and” are separate entries in the source; they are usually repeats but may differ in a detail not shown here. Equal entries are not always repeated. “Also recorded” adds a separate entry of the source. Where two headings read alike, the source gives them in different places.

How the values were obtained:
[1] = molecular target: C1 domain of human PKD (purified C1AB domain) (Homo sapiens, UniProt Q15139); test: [3H]PDBu competition assay with purified C1AB domain of PKD; assay type: binding
Sequence of C1 domain of human PKD (purified C1AB domain) (Q15139 whole entry, the tested form may be a part): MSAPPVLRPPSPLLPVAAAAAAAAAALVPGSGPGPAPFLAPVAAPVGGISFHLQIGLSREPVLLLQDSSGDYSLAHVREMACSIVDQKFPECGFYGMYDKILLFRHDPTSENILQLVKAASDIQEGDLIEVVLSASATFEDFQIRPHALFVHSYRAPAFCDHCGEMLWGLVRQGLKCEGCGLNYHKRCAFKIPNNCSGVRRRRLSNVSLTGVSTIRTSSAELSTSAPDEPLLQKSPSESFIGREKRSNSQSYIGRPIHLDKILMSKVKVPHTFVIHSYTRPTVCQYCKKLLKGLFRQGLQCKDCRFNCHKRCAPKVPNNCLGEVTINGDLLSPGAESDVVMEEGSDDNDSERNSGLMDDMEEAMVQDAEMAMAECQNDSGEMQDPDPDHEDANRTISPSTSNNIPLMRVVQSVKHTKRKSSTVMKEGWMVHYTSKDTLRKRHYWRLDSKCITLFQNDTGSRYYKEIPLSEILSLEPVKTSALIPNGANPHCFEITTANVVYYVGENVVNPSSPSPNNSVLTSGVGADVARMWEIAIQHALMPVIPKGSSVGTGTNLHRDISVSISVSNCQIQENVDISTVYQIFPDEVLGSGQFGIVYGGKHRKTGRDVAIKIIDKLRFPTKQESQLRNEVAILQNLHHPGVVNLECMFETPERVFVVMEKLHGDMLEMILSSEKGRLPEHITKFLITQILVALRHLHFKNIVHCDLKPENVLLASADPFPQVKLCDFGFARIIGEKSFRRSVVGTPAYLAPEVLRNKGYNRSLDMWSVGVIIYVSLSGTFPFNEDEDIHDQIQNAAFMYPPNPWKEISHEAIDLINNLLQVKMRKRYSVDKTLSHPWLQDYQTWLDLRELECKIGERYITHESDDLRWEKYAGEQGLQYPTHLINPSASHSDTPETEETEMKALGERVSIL
Procedure: Affinities were measured with a radioactive […]
The results of the biochemical binding assays with cellular binding assays were used to quantitatively investigate differences between conventional biochemical measurements of Ki values with this novel method for determination of Ki values in cellule.

Jurkat cells = test: Cellular viability assay, Jurkat lymphocytes, 48 h, flow cytometry (Example 2); assay type: cell-based; details: Homo sapiens, Jurkat, read-out: toxicity towards Jurkat cells, IC50
Procedure: The impact of membrane transporters on the toxicity profile of 49 was also studied.
Jurkat lymphocytes were seeded into a 96-well plate in fresh complete medium at 2.5×10^5 cells/mL and 200 μL per well. All compounds were serial diluted in DMSO and added to complete media to achieve a 1:1000 dilution factor (0.10% DMSO in each well). […] The total cell-count for each well was determined by flow cytometry and staining with propidium iodide was used to identify populations of live cells (only dead cells are stained by PI). Counts of viable cells for each treatment, determined in triplicate, were used to generate dose-response curves. These curves were fitted with non-linear regression using an inhibitor vs. response variable slope […] model (GraphPad Prism 9) to determine IC50 values.

HEK293 cells = test: Viability of HEK293 cells during probe treatment by flow cytometry; assay type: cell-based; details: 33 at 1 μM, verapamil 0, 25 or 100 μM, 1 h
Procedure: FIGS. 14A and 14B show quantification of fluorescence (FIG. 14A) and viability (FIG. 14B) upon treatment of HEK293 cells with compound 33 (1 μM) and verapamil (0, 25 or 100 μM) for 1 h. Total [DMSO]=0.2%. Error bars represent SD (N=3). Statistical significance analyzed by one-way ANOVA (GraphPad Prism 9). **, P<0.01; ****, P<0.0001. Samples were analyzed with a Beckman Coulter Cytoflex flow cytometer. (Ex. 405 nm/Em. […]). […] Compound 33 is non-toxic under these conditions.
FIGS. 16A-16D show quantification of non-specific binding and cell viability after treatment for 1 h at 37° C. with compound 33 (2-fold serial dilution from 5 μM) and verapamil (75 μM) in the presence of different competitors (PMA or non-fluorescent PB-carbamate 8, at 0, 5 and 10 μM). Total [DMSO]=0.3%. (FIG. 16A) Parental HEK293 cells analyzed after treatment with 33 in the presence or absence of PMA or compound 8. […] Samples were analyzed with a Beckman Coulter Cytoflex flow cytometer and gated to analyze living cells (Ex. 405 nm; Em. 450/45 nm).
The efflux of this fluorescent probe was next studied by flow cytometry. […] The blue fluorescent signal (405 nm laser) of HEK293 cells overexpressing green fluorescent full-length PKCγ-EGFP was elucidated (the median protein concentration was determined to be ˜5.0 μM as measured by flow cytometry by comparison with Spherotech rainbow bead standards as described herein). […]

rat EGFP-N2-PKCγ = molecular target: T1, rat EGFP-N2-PKCγ (Rattus norvegicus, UniProt P63319); test: Confocal video microscopy of PKCγ trafficking in HEK293 cells; assay type: cell-based; details: 33 at 1 μM, after 10 min
T1 construct: transiently transfected with DNA encoding the full-length rat PKCγ-EGFP; host or cells: HEK293
Source text: Blue fluorescence of 33 is shown in the right panels (Ex. 405 nm, Em. 410-495 nm, Gain 50), green fluorescence of transiently transfected EGFP-N2-PKCγ protein is shown in the middle panels (Ex. 488 nm, Em. 500-650 nm, Gain 700), and DIC images are shown in the left panels. Trafficking of PKCγ-mEGFP protein to membranes induced by 33 can be observed Images were acquired with a Leica SP8 microscope (63× objective). Scale bar=25 μm.
It appears that this is due to efflux of this compound from cells mediated by efflux transporters such as Pgp. To explore this idea, two-color confocal video microscopy was used. Briefly, HEK293 cells were transiently transfected with commercially available plasmid DNA encoding rat PKCγ fused to GFP (EGFP-N2-PKCγ, Addgene Plasmid #21204).^84 The HEK293 cell line is known to expresses multiple efflux transporters including Pgp (MDR1/ABCB1).^85 The fluorescence of GFP was monitored by excitation with a 488 nm laser and emission collected between 500-650 nm. […] In addition, the cell morphology was recorded using differential interference contrast microscopy (DIC). The localization of the fluorescent probe and the GFP fusion protein was recorded using video confocal microscopy immediately after treatment of transfected cells with 33. […]

C1A-C1A-EYFP (PKCγ) = molecular target: T2, C1A-C1A-EYFP (PKCγ) (UniProt P63319); test: Cellular binding by flow cytometry, HEK293 cells expressing C1A-C1A-EYFP (PKCγ); details: verapamil 100 μM
T2 construct: apparent Kd; other: verapamil 100 μM, 90 min, 37° C., DMEM high glucose, 4% FBS; half time (t1/2) of cellular fluorescence; other: 33 at 5 μM, verapamil 100 μM, room temperature; fused on or other part: EYFP at the C-terminus; the C1A module is present twice in one chain
Source text: The dissociation constant can be defined as the ratio of koff divided by kon. This value is also the concentration where the ligand occupies 50% of the receptor.^94 Kd is only meaningful when equilibrium is reached, where the ligand-receptor complex is formed at the same rate as it dissociates into free ligand and receptor (FIG. 15). This binding equilibrium is established when essentially no further change in the amount of bound complex is observed over time. To evaluate the time needed for equilibration, we treated HEK293 cells that overexpress C1A-C1A-EYFP (PKCγ) with 33 (0 and 5 μM) in the presence or absence of verapamil (100 μM) and cellular fluorescence was measured by flow cytometry as a function of time (FIG. 18A). […] This optimization was used to establish a 90 min equilibration period for further assay optimization.
The presence of fetal bovine serum (FBS) in the culture media also influenced the binding by sequestering the free ligand. The assay conditions were finalized using HEK293 cells incubated with the probe in the presence of verapamil for 90 min at 37° C. in DMEM media (high glucose, 4% FBS).

mouse PKCβI-mVenus = molecular target: T3, mouse PKCβI-mVenus (Mus musculus, UniProt P68404); test: Apparent cellular Kd by flow cytometry, HEK293 cells overexpressing PKCβI-mVenus (Example 2); assay type: binding
T3 construct: eight plasmids encoding full length mouse PKC isozymes fused to; expressed in transfected cells; host or cells: HEK293
T3 sequence (P68404 whole entry, the tested form may be a part): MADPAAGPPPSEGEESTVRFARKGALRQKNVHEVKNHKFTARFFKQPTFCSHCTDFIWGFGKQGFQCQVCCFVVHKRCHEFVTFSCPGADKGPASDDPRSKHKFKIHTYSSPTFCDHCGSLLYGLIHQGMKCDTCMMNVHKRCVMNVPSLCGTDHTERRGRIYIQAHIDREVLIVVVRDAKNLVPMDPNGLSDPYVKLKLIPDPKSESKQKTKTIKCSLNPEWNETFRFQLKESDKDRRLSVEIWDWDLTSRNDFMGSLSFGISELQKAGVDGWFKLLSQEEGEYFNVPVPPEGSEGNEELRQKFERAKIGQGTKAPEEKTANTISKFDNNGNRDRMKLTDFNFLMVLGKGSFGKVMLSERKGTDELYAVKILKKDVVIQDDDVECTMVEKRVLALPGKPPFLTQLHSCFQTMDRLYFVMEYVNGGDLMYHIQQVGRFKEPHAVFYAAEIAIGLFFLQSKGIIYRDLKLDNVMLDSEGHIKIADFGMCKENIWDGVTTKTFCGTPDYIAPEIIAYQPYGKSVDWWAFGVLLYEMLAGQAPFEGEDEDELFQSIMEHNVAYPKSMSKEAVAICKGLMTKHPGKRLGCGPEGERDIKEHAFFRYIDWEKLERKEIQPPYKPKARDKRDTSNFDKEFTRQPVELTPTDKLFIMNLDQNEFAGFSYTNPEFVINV
Procedure: The apparent Kd values of these fluorescent probes were measured using different PKC isozymes (e.g., PKCβI, FIGS. 20A-20D). HEK293 cells were transfected to overexpress PKCβ-mVenus and treated with probes in the presence of verapamil (100 μM) as an inhibitor of efflux.

[2] = cited from earlier work
[3] = system: Taxol binding site in living cells; details: previously reported; read-out: Ki by confocal microscopy; cited from earlier work
[4] = system: microtubules (taxane binding site) in living HeLa cells; test: Competition binding assay with PB-GABA-Taxol in living HeLa cells (cellular Ki); details: for Ki: read-out: cellular Ki, PB-GABA-Taxol 1.5 μM, verapamil 100 μM, 37° C., 4% FBS, 3 h
Procedure: In this assay the cellular Kd was measured by varying the concentration of the fluorescent probe added to cells at equilibrium as established by kinetic assays of probe uptake. Total binding of this probe to specific and non-specific sites in cells in the presence of the efflux inhibitor verapamil was determined by flow cytometry. Non-specific binding was quantified separately by addition of excess paclitaxel with the probe under the same conditions. Subtraction of the linear non-specific binding contribution from the total binding curve was used analyze specific binding of the probe to tubulin of microtubules. Measurement of this cellular dissociation constant under equilibrium conditions further allowed conversion of the half-maximal inhibitory concentration (IC50) of unlabeled compounds into cellular inhibitory constants using an adaptation of the Cheng-Prusoff equation^44 for competitive modulators (Ki) or the allosteric equation^45 for non-competitive modulators (Kb and the cooperativity factor α) as implemented by GraphPad Prism.

[5] = system: microtubule network of HeLa cells (mScarlet-α-Tubulin); test: Confocal microscopy of HeLa cells transfected with mScarlet-α-Tubulin; assay type: cell-based; details: 1 h at 37° C.
Procedure: (FIG. 28C) Characterization of fluorescent microtubule phenotypes in HeLa cells transiently transfected with mScarlet-a-Tubulin and treated with the microtubule modulators (1 h at 37° C.). […] Scale bars=10 μm.
Cells were washed with PBS before treatment with PB-GABA-Taxol (100 nM) and (±)-verapamil hydrochloride (100 μM), with or without paclitaxel (10 μM) as a competitor, in phenol red-free DMEM supplemented with 10% FBS. Cells were incubated at 37° C. for 3 h prior to imaging by confocal microscopy. For experiments using HeLa cells transfected with mScarlet-α-tubulin, transient transfection was performed using a Invitrogen Lipofectamine 3000 Transfection kit (Thermo, L3000-075). Transfection used a 1× dose of lipid in OptiMEM (4% FBS) for 18 hours before washing of cells with PBS and treatment with the microtubule modulator for 1 h at 37° C.

[6] = molecular target: crosslinked / purified microtubules; details: previously reported; read-out: biochemical Ki for microtubules; cited from earlier work
albumin = albumin (Homo sapiens, UniProt P02768); details: cited from earlier work
Sequence of albumin (P02768 25-609, species assumed): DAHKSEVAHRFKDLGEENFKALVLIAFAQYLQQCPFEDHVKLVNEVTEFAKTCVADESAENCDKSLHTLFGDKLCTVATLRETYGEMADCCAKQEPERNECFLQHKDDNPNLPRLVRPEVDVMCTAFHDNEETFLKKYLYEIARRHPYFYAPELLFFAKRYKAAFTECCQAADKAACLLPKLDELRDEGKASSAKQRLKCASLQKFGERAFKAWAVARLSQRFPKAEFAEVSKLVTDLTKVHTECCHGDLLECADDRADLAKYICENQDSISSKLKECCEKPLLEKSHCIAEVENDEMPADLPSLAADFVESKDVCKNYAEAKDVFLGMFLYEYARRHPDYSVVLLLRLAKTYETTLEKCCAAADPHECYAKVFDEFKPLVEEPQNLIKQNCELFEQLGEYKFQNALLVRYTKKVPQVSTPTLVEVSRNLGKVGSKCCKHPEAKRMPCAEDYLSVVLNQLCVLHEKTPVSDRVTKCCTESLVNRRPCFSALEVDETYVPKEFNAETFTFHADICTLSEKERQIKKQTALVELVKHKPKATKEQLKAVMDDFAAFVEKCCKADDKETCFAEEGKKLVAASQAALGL

CC1=C[C@H]2[C@@]3(O)[C@H](C)[C@@H](O)[C@]4(OC(=O)N(C)CCCCCCCCCCCCN(C)C(=O)c5cc6cc(F)c(O)c(F)c6oc5=O)[C@H]([C@@H]3C=C(CO)C[C@]2(O)C1=O)C4(C)C [probe 33, (1aR,1bS,4aR,7aS,7bS,8R,9R,9aS)-4a,7b,9-trihydroxy-3-(hydroxymethyl)-1,1,6,8-tetramethyl-5-oxo-1,1a,1b,4,4a,5,7a,7b,8,9-decahydro-9aH-cyclopropa[3,4]benzo[1,2-e]azulen-9a-yl (12-(6,8-difluoro-7-hydroxy-N-methyl-2-oxo-2H-chromene-3-carboxamido)dodecyl)(methyl)carbamate]
Ki ([1]; Ki for purified C1AB domain of PKD): 30 nM
Ki ([1]; read-out: Ki for purified C1AB domain of PKD): ~30 nM
IC50 (Jurkat cells): ~12000 nM
toxicity to HEK293 cells (HEK293 cells): non-toxic; also recorded: no toxicity
trafficking of PKCγ (rat EGFP-N2-PKCγ): translocation of PKCγ to the plasma membrane
half time (t1/2) of cellular fluorescence (C1A-C1A-EYFP (PKCγ); 33 at 5 μM, room temperature): about 32 min
Kd (C1A-C1A-EYFP (PKCγ); 90 min, 37° C., DMEM high glucose, 4% FBS, read-out: apparent Kd): 6400 nM
Kd (mouse PKCβI-mVenus): 2700 nM

O=C(O)c1cc2cc(F)c(O)c(F)c2oc1=O [Pacific Blue™]
phenol pKa [2]: 3.7

C/C(=C\c1csc(C)n1)[C@@H]1C[C@@H]2O[C@]2(C)CCC[C@H](C)[C@H](O)[C@@H](C)C(=O)C(C)(C)[C@@H](O)CC(=O)N1 [ixabepilone]
Ki [3]: 7.6 ± 1.6 nM
Ki [4]: 10 nM

CC(=O)O[C@H]1C(=O)[C@@]2(C)[C@H]([C@H](OC(=O)c3ccccc3)[C@]3(O)C[C@H](OC(=O)[C@H](O)[C@@H](NC(=O)c4ccccc4)c4ccccc4)C(C)=C1C3(C)C)[C@]1(OC(C)=O)CO[C@@H]1C[C@@H]2O [paclitaxel]
fluorescent microtubule phenotype [5]: increased numbers of microtubule fibers
Ki [6]: 19 nM and 27 nM and 31 nM
Kd (albumin): 120 nM
decrease of apparent affinity vs incubation for 3 h or 4 h ([4]; incubation 1 h): 3 fold
decrease of apparent affinity vs incubation for 3 h or 4 h ([4]; incubation 2 h): 2 fold
underestimation of cellular Ki ([4]; probe concentration 3 μM): 12 fold
Ki [4]: 22 nM
decrease of apparent affinity (cellular Ki) by ligand depletion ([4]; σ=15% (150 nM β-tubulin/well)): 2.3 fold
decrease of apparent affinity (cellular Ki) by ligand depletion ([4]; σ=30% (300 nM β-tubulin/well)): 4.7 fold
